{
  "source": "paper PMC11869428",
  "about": "(Microbial Cell Factories, 2025)",
  "biological_target": "T1, GenP (Micromonospora echinospora, UniProt A0A1C4WLH3)",
  "T1 sequence (A0A1C4WLH3 1-268)": "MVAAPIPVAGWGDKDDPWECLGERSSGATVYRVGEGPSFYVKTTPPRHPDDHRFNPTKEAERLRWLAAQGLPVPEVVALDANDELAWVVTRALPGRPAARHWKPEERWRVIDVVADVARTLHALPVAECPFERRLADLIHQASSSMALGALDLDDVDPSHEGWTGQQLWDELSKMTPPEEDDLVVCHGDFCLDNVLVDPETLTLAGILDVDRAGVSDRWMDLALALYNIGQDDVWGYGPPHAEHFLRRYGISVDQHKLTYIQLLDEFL",
  "assay": "preparative phosphorylation, HPLC-ELSD",
  "format": "biochemical",
  "conditions": "ATP […], MgCl2 […], Tris […] pH […] °C, […] h",
  "data": [
    {"smiles": "CN[C@@H]1[C@@H](O)[C@@H](O[C@@H]2[C@@H](O)[C@H](O[C@H]3O[C@H](CN)[C@@H](O)[C@H](O)[C@H]3N)[C@@H](N)C[C@H]2N)OC[C@]1(C)O", "note": "[JI-20A]", "values": [
      {"measurement": "preparative phosphorylation, HPLC-ELSD", "value": "JI-20A-P, JI-20Ba-P, and JI-20B-P were obtained through the catalysis of GenP"}
    ]}
  ]
}
